Where no end group is shown, it is not given here.
Tests used:
[1] = tested on: CAC; assay: Detection of ROS in CAC (DCF-DA assay, FACS); assay type: cell-based, human
Method: First, cell-cycle progression in response to UAG and AG was evaluated. […] To investigate whether this effect relies on inhibition of baseline ROS production, DCF-DA assay was performed. […] H2O2 was used as positive control. AGE-mediated damage signals mainly rely on ROS production (Ref. 29). […] Detection of ROS—DCF-DA (0.5 μM final concentration) was added to CAC in the indicated culture conditions. At the indicated times, the cells were subjected to FACS analysis and processed as previously described (Ref. 22). H2O2 was used as positive control.

[2] = tested on: p53, p21, pRb; assay: Western blot of p53, p21 and phospho-Rb in cultured CAC; assay type: cell-based, human; details: induced by AGE in cultured CAC; FIG. 2B
Source text: (§1) To this end, the effect of AGE treatment, alone or in combination with UAG, was first evaluated on SA-β-gal activity. […] In addition, AGE-induced p53 accumulation and senescent like-growth arrest were prevented by silencing p53 (FIG. 2C).
(§2) Western Blot Analysis—CAC from healthy donors cultured in the presence of UAG, in combination or not with AGE, and CAC recovered from diabetic patients treated with saline or UAG were lysed. Protein concentration was detected as previously described (Ref. 24). 50 μg of proteins were separated on SDS-polyacrylamide gels and transferred to nitrocellulose membranes. Reaction with anti-p53, anti p21 and anti-phospho-Rb antibodies and detection with an enhanced chemiluminescence detection system (Amersham Biosciences) were performed as described previously (Ref. 20).

[3] = tested on: CAC; assay: Arterial morphogenesis by Q-RT-PCR (Ephrin B2, Notch1, Notch4, EphB4) of CAC from treated patients; assay type: in vivo, human; details: cells obtained from treated patients, cultured with IL-3; FIG. 3D
Method: (§3) To confirm their vascular features, the cells recovered from patients and controls were cultured with IL-3; which is able to induce expansion and arterial morphogenesis of CD45^+ cells derived from both peripheral blood and BM (Ref. 28).
(§4) RNA isolation and quantitative real-time PCR—CAC from diabetic patients, healthy subjects and mice treated with UAG or saline were cultured in EGM-2 medium. Human arterial and venous cells were used as a positive controls. mRNA quantification was performed by Q-RT-PCR, as previously described (Ref. 24). The relative expression of Ephrin B2, Notch1, Notch4 and EphB4 were calculated by using comparative threshold cycle methods. The human and murine primer sequences used were described (Refs. 25, 26).

[4] = tested on: CAC; assay: Senescence of CAC recovered from type 2 diabetic patients treated with UAG; parameters: species or system human; details: UAG administered in vivo, CAC recovered after 12 hours, FIG. 2D
Method: (§5) After 12 hours of treatment, CAC were recovered from UAG treated and untreated patients and cultured.
(§6) All the subjects underwent the following testing session: • UAG (3.0 μg/kg/h iv. as infusion for 12 h from 0 to 12 hours); • isotonic saline (infusion from 0 to 12 hours).
(§7) CAC Senescence—Senescence was evaluated by acidic β-gal activity on CAC recovered from normal subjects cultured in EGM2 medium for 4 days with UAG or AGE+UAG and saline- or UAG-treated diabetic patients (Ref. 22). Briefly, CAC were washed in phosphate-buffered saline, fixed for 3 min at room temperature in 2% paraformaldehyde, washed, and incubated for 24 h at 37° C. with fresh SA-β-gal stain solution: 1 mg/ml 5-bromo-4-chloro-3-indolyl β-D-galactopyranoside (X-gal), 5 mM/liter potassium ferrocyanide, 5 mM/liter ferricyanide, 150 mM/liter NaCl, 2 mM/liter MgCl2, 0.01% sodium deoxycholate, and 0.02% Nonidet P-40. SA-β-gal-positive cells were counted manually by 3 independent investigators.

[5] = tested on: CAC; assay: CAC senescence (acidic beta-gal / SA-beta-gal activity) in cultured CAC; assay type: cell-based, human; details: FIG. 2A
Method: as §1, §7

[6] = tested on: CAC; assay: CAC mobilization assay in healthy subjects and diabetic patients; assay type: in vivo, human; details: diabetic patients compared to normal subjects, treated for 6 hours; FIG. 3B
Method: This observation led to investigate the effect of UAG treatment on BM CAC mobilization. To this end, normal subject and diabetic patients were treated with UAG or saline for 6 hours. After treatment, CAC were recovered from 4 control subjects and 4 diabetic patients, analyzed by FACS analysis and counted. […] Black lines refer to preimmune IgG used as negative control and grey lines refer to surface marker expression. Similar results were obtained when CAC from untreated diabetic patients or untreated or treated healthy subjects were analyzed (data not shown).
as §6
Mobilization assay—CAC recovered from healthy subjects and diabetic patients, treated with UAG or saline for 6 h and 12 h, were evaluated. Total number of MNC was counted by 3 independent investigators. The percentage of CAC was calculated by comparing CAC obtained from diabetic patients and healthy donors, treated for 6 h and 12 h with UAG, AG or saline, to CAC recovered at time 0.

[7] = tested on: p53, p21, pRb; assay: Western blot of p53, p21, phospho-Rb in CAC recovered from UAG-treated diabetic patients; parameters: species or system human; details: type 2 diabetic patients, UAG administered in vivo, CAC recovered after 12 hours; FIG. 2E
Method: as §5, §6, §2

[8] = tested on: CAC; assay: Expansion and arterial commitment of CAC recovered from UAG-challenged mice, cultured with IL-3; assay type: in vivo, mouse
Method: After treatment, cells were recovered, assayed by FACS analysis, counted and cultured. […] Black lines refer to preimmune IgG used as negative control and grey lines refer to surface marker expression. Similar results were obtained when CAC from untreated diabetic mice as well as untreated or treated wild-type mice were analyzed (data not shown).
as §4
Flow Cytometry—To analyze CAC cell-cycle progression, cells recovered from diabetic, healthy subjects, NOD/SCID, ob/ob and wt mice, were cultured in EBM-2 supplemented with IL-3 (10 ng/ml), FACS analysis was performed as previously described (Ref. 20). Cell surface molecules were evaluated by flow cytometry as previously described (Ref. 24). Frequency of marker-positive cells is expressed as mean±standard deviation (SD). […]

[9] = tested on: human arteries; details: Ref. 35; cited from earlier work
[10] = tested on: CAC; assay: Expansion (S phase) of CAC recovered from treated patients, cultured with IL-3; assay type: in vivo, human; details: cells recovered from treated diabetic patients; FIG. 3C
Method: as §3
Flow Cytometry—To analyze CAC cell-cycle progression, cells recovered from diabetic, healthy subjects, NOD/SCID, ob/ob and wt mice, were cultured in EBM-2 supplemented with IL-3 (10 ng/ml), FACS analysis was performed as previously described (Ref. 20). Cell surface molecules were evaluated by flow cytometry as previously described (Ref. 24). Frequency of marker-positive cells is expressed as mean±standard deviation (SD).

Substance: 1-NH2Gly-Ser-Ser-Phe-Leu-Ser-Pro-Glu-His-Gln-Arg-Val-Gln-Gln-Arg-Lys-Glu-Ser-Lys-Lys-Pro-Pro-Ala-Lys-Leu-Gln-Pro-Arg-28 (H-GSSFLSPEHQRVQQRKESKKPPAKLQPR; ends and bridges not checked; listed as Homo sapiens) [UAG]
- level of ROS production in AGE-cultured cells ([1]; AGE-cultured CAC, FIG. 1C, 1F): the level of ROS production in AGE-cultured cells was reduced
- intracellular ROS production in diabetic-recovered cells ([1]; CAC isolated from type 2 diabetic patients, treated in vitro, FIG. 1D): reduced intracellular ROS production
- baseline level of ROS production ([1]; CAC, compared to untreated cells, FIG. 1B, 1E): drastically reduces the baseline level of ROS production
- p53 accumulation, p21 expression and phosphorylation of Rb [2]: prevented p53 accumulation, p21 expression and phosphorylation of Rb induced by AGE
- arterial specification (Ephrin B2, Notch1, Notch4; EphB4) [3]: able to undergo arterial specification
- number of senescent cells [4]: reduced the number of senescent cells
- number of SA-beta-gal positive cells ([5]; UAG added to AGE-cultured CAC): significant reduction in the number of SA-β-gal positive cells
- number of senescent cells (SA-beta-gal activity) ([5]; cultured CAC, UAG alone): reduce the number of senescent cells
- number of recovered cells (CAC) [6]: strong increase in the number of recovered cells
- p53 accumulation, phosphorylation of Rb and p21 expression [7]: prevented p53 accumulation, phosphorylation of Rb and p21 expression
- arterial commitment of recovered CAC ([8]; CAC from UAG-challenged mice cultured in the presence of IL-3, FIG. 4D): acquire arterial commitment
- expansion of recovered CAC ([8]; CAC from UAG-challenged mice, FIG. 4C): could be expanded
- vasodilator action [9]: have vasodilator actions in human arteries
- cell expansion (cells in S phase) with IL-3 [10]: underwent cell expansion
